Results reported in patent US20260285850A1, “SUBSTITUTED OXAZOLIDINONES AND IMIDAZOLINONES AS HERBICIDES” (FMC CORPORATION, priority 2023, published 2026).

Key:
Format in all cases: in vivo
[1] = system: ryegrass, Italian (italian ryegrass, Lolium multiflorum); test: Test A postemergence application, visual injury rating 0-100
Summary of the method: (§1)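 Grow plants in loam soil blended with sand. Apply formulated compound (non-phytotoxic solvent, surfactant) as a directed soil spray before emergence, or to plants at the one- to two-leaf stage after emergence. Hold in greenhouse 10 days, then rate injury visually versus untreated controls on a 0-100 scale.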

[2] = system: oat, wild (wild oat, Avena fatua); test: as above
Summary of the method: as §1

[3] = system: horseweed (Erigeron canadensis); test: as above
Summary of the method: as §1

[4] = system: palmer (palmer amaranth, palmer pigweed, Amaranthus palmeri); test: as above
Summary of the method: as §1

[5] = system: kochia (Bassia scoparia); test: as above
Summary of the method: as §1

[6] = system: soybean (Glycine max); test: as above
Summary of the method: as §1

[7] = system: galium (catchweed bedstraw, Galium aparine); test: as above
Summary of the method: as §1

[8] = system: green foxtail (Setaria viridis); test: as above
Summary of the method: as §1

[9] = system: barnyardgrass (Echinochloa crus-galli); test: as above
Summary of the method: as §1

[10] = system: wheat (Triticum aestivum); test: as above
Summary of the method: as §1

[11] = system: ragweed (common ragweed, Ambrosia artemisiifolia); test: as above
Summary of the method: as §1

[12] = system: blackgrass (Alopecurus myosuroides); test: as above
Summary of the method: as §1

[13] = system: corn (Zea mays); test: as above
Summary of the method: as §1

[14] = system: rice (Oryza sativa); test: Test B flooded paddy test, visual plant response rating 0-100; details: 250 g ai/ha, Flood, applied to paddy water, evaluated after 13 days
Summary of the method: (§2)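 Treatment occurs at the 2-leaf stage by adding compound to floodwater standing 3 cm above the soil, a level kept for the whole test. Plants stay in the greenhouse 13 days before visual comparison with controls.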

[15] = system: barnyardgrass (Echinochloa crusgalli); test: as above; details: 250 g ai/ha, Flood, applied to paddy water, evaluated after 13 days
Summary of the method: as §2

[16] = system: ducksalad (Heteranthera limosa); test: as above; details: 250 g ai/ha, Flood, applied to paddy water, evaluated after 13 days
Summary of the method: as §2

[17] = system: sedge, umbrella (small-flower umbrella sedge, Cyperus difformis); test: as above; details: 250 g ai/ha, Flood, applied to paddy water, evaluated after 13 days
Summary of the method: as §2

[18] = system: ryegrass, Italian (italian ryegrass, Lolium multiflorum); test: Test A preemergence soil spray, visual injury rating 0-100; details: 10 days
Summary of the method: as §1

[19] = system: oat, wild (wild oat, Avena fatua); test: as above; details: 10 days
Summary of the method: as §1

[20] = system: palmer (palmer amaranth, palmer pigweed, Amaranthus palmeri); test: as above; details: 62 g ai/ha, 10 days, 0 = no effect, 100 = complete control
Summary of the method: as §1

[21] = system: kochia (Bassia scoparia); test: as above; details: 10 days
Summary of the method: as §1

[22] = system: soybean (Glycine max); test: as above; details: 10 days
Summary of the method: as §1

[23] = system: green foxtail (Setaria viridis); test: as above; details: 10 days
Summary of the method: as §1

[24] = system: barnyardgrass (Echinochloa crus-galli); test: as above; details: 10 days
Summary of the method: as §1

[25] = system: wheat (Triticum aestivum); test: as above; details: 10 days
Summary of the method: as §1

[26] = system: ragweed (common ragweed, Ambrosia artemisiifolia); test: as above; details: 10 days
Summary of the method: as §1

[27] = system: blackgrass (Alopecurus myosuroides); test: as above; details: 10 days
Summary of the method: as §1

[28] = system: corn (Zea mays); test: as above; details: 16 g ai/ha, 0 to 100 scale, 10 days
Summary of the method: as §1

[29] = 62 g ai/ha, postemergence, 10 days, 0 = no effect, 100 = complete control
[30] = Postemergence, 16 g ai/ha, greenhouse 10 days, 0 no effect, 100 complete control
[31] = 62 g ai/ha, 0 = no effect, 100 = complete control

CCOC(=O)C1=CCC(NC(=O)C2(C)CN(c3cc(F)cc(Cl)c3)C(=O)O2)C1 (centres unmarked) [Compound 133]
Ryegrass, Italian plant response rating (0-100) [1, 29]: 90
Ryegrass, Italian plant response rating (0 to 100 scale) [1, 30]: 60
Oat, Wild plant response rating (0-100) [2, 29]: 70
Oat, Wild plant response rating (0 to 100 scale) [2, 30]: 40
Horseweed plant response rating (0-100) [3, 29]: 80
Horseweed plant response rating (0 to 100 scale) [3, 30]: 0
Pigweed, Palmer plant response rating (0-100) [4, 29]: 90
Pigweed, Palmer plant response rating (0 to 100 scale) [4, 30]: 90
Kochia plant response rating (0-100) [5, 29]: 90
Kochia plant response rating (0 to 100 scale) [5, 30]: 80
Soybean plant response rating (0-100) [6, 29]: 70
Soybean plant response rating (0 to 100 scale) [6, 30]: 60
Galium plant response rating (0-100) [7, 29]: 70
Galium plant response rating (0 to 100 scale) [7, 30]: 60
Foxtail, Green plant response rating (0-100) [8, 29]: 90
Foxtail, Green plant response rating (0 to 100 scale) [8, 30]: 90
Barnyardgrass plant response rating (0-100) [9, 29]: 100
Barnyardgrass plant response rating (0 to 100 scale) [9, 30]: 100
Wheat plant response rating (0-100) [10, 29]: 90
Wheat plant response rating (0 to 100 scale) [10, 30]: 80
Ragweed plant response rating (0-100) [11, 29]: 70
Ragweed plant response rating (0 to 100 scale) [11, 30]: 30
Blackgrass plant response rating (0-100) [12, 29]: 90
Blackgrass plant response rating (0 to 100 scale) [12, 30]: 70
Corn plant response rating (0-100) [13, 29]: 100
Corn plant response rating (0 to 100 scale) [13, 30]: 100
Plant response rating, Rice (0 to 100 scale, 0 is no effect and 100 is complete control) [14]: 85
Plant response rating, Barnyardgrass (0 to 100 scale, 0 is no effect and 100 is complete control) [15]: 95
Plant response rating, Ducksalad (0 to 100 scale, 0 is no effect and 100 is complete control) [16]: 85
Plant response rating, Sedge, Umbrella (0 to 100 scale, 0 is no effect and 100 is complete control) [17]: 98
Ryegrass, Italian plant response rating ([18]; 16 g ai/ha, 0 to 100 scale): 10
Ryegrass, Italian plant response rating (0-100) [18, 31]: 80
Oat, Wild plant response rating ([19]; 16 g ai/ha, 0 to 100 scale): 0
Oat, Wild plant response rating (0-100) [19, 31]: 0
Pigweed, Palmer plant response rating (0-100) [20]: 90
Kochia plant response rating ([21]; 16 g ai/ha, 0 to 100 scale): 0
Kochia plant response rating (0-100) [21, 31]: 20
Soybean plant response rating ([22]; 16 g ai/ha, 0 to 100 scale): 0
Soybean plant response rating (0-100) [22, 31]: 0
Foxtail, Green plant response rating ([23]; 16 g ai/ha, 0 to 100 scale): 0
Foxtail, Green plant response rating (0-100) [23, 31]: 90
Barnyardgrass plant response rating ([24]; 16 g ai/ha, 0 to 100 scale): 0
Barnyardgrass plant response rating (0-100) [24, 31]: 80
Wheat plant response rating ([25]; 16 g ai/ha, 0 to 100 scale): 0
Wheat plant response rating (0-100) [25, 31]: 90
Ragweed plant response rating ([26]; 16 g ai/ha, 0 to 100 scale): 0
Ragweed plant response rating (0-100) [26, 31]: 0
Blackgrass plant response rating ([27]; 16 g ai/ha, 0 to 100 scale): 0
Blackgrass plant response rating (0-100) [27, 31]: 20
Corn plant response rating [28]: 0
